The source of these data is PMC12216625, “Identification of nanomolar adenosine A2A receptor ligands using reinforcement learning and structure-based drug design” (Nature Communications, 2025).

For experiment [1], the target named is T1, A2A receptor (human, wild-type) (Homo sapiens, UniProt P29274).
T1 construct: gene ADORA2A; wild-type human A2A; BacMam-transfected cells (CHO-K1 for the cAMP assay)
The experiment is described as follows: [3H]-ZM241385 radioligand competition, filtration. In kind it is binding. To be noted: read-out: A2A / pKi (± SD) (converted). An excerpt:
[3H]-ZM241385 radioligand competition, filtration on A2A receptor (human, wild-type)
(In general: Loss of bound radioactivity is the signal in a displacement assay; it reports binding, not function.)

The target in experiment [2] is T1, A2A receptor (human, wild-type). Briefly: cAMP accumulation HTRF, agonist mode (compound alone). Format: cell-based. To be noted: read-out: A2A / pEC50 (± SD) (converted). The source says:
cAMP accumulation HTRF, agonist mode (compound alone) on A2A receptor (human, wild-type)
For orientation: cAMP levels reflect the balance of adenylyl cyclase and phosphodiesterase activity.

For experiment [3] the target is unchanged. Briefly: cAMP accumulation HTRF, antagonist mode. In kind it is cell-based. To be noted: read-out: A2A / pIC50 (± SD) (converted). An excerpt: cAMP accumulation HTRF, antagonist mode on A2A receptor (human, wild-type)

T1 sequence (P29274 whole entry): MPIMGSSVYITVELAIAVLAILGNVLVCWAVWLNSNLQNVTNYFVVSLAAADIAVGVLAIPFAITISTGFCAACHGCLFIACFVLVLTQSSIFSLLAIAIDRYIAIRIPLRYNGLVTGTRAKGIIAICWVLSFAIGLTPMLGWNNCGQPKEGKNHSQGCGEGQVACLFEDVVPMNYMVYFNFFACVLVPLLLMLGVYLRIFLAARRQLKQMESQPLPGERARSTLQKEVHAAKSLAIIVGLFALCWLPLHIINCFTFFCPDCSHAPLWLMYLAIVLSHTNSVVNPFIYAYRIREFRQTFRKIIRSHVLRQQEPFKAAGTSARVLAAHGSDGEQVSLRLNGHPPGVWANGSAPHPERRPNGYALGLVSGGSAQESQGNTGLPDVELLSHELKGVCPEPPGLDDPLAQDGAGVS

Regarding `Cc1ccc(-c2nc(N)nn2-c2ccccc2)cc1` [compound 1, Compound 1], the Ki in experiment [1] was 15.8 µM.
With `Nc1cc(NCc2ccccc2F)nc(-c2ccccn2)n1` [compound 3, Compound 3], the Ki in experiment [1] was 1.26 µM.
Consider `Nc1nc(-c2ccc(O)cc2)c2cc(F)ccc2n1` [compound 5, Compound 5], for which, in experiment [2], the EC50 is 0.0501 µM. The Ki in experiment [1] was 2 µM.
Turning to `Nc1nc2cc(-c3ccoc3)cc(-c3ccco3)n2n1` [compound 6, Compound 6], in experiment [1], the Ki is 1.26 µM.
In the case of `Nc1nc(-c2cccc(-n3ccnc3)n2)nc(-c2ccco2)n1` [compound 7, Compound 7], in experiment [2], the EC50 was 0.02 µM. Also, in experiment [1], the Ki was 0.0501 µM. The IC50 in experiment [3] was 0.0251 µM.
For `Nc1nc(-c2ccco2)nc2c1ccn2-c1ccncc1` [compound 9, Compound 9], in that order: 0.316 µM, 0.0316 µM and 0.02 µM.
